Reference: patent US20100234402A1, “METHODS AND COMPOSITIONS FOR TREATING SPINAL MUSCULAR ATROPHY” (priority 2007, published 2010)

Legend:
[1] = biological target: T1, SMN complex (Homo sapiens, UniProt Q16637); assay: Magnetic beads snRNP assembly assay in vitro with cell extracts; type: biochemical; conditions: for IC50: extracts of untreated cells, read-out: IC50, inhibition of the activity of the SMN complex in vitro
T1 construct: HeLa cell extracts (containing the SMN complex and all the components required for Sm core assembly); endogenous in cells; host or cells: HeLa: S3 cytoplasmic or total extracts for in vitro reactions, HeLa PV total extracts for compound-treated cells
T1 sequence (Q16637 2-294 limits assumed): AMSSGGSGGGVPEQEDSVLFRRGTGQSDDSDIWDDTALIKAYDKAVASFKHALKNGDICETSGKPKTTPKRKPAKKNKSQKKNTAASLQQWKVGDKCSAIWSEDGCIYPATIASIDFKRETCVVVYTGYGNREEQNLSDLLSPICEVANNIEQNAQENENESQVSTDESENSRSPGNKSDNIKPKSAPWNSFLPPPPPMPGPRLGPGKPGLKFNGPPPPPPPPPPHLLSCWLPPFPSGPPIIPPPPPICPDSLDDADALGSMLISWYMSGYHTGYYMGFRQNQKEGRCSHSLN
T1 sequence (O14893 whole entry partner): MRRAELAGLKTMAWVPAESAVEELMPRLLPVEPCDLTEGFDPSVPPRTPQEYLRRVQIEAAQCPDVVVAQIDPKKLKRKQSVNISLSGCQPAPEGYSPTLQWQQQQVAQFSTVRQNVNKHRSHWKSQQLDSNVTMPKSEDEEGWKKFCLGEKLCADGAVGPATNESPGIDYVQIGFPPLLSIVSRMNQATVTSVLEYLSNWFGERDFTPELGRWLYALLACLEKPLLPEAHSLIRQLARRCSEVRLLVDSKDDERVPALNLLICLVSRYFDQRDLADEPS
Procedure: (§1) Magnetic beads snRNP assembly assay was carried out in the presence of increasing amounts of H2O2. IC50 was calculated from the dose-response curve. The error bars represent SDs from 3 independent measurements. (B) Effect of menadione on the activity of the SMN complex in vitro. The same experimental procedure was carried out as in (A), except that menadione was used instead. (C) Dose-dependent effect of menadione on the activity of the SMN complex in cells. HeLa cells were treated with menadione at the indicated concentrations or with DMSO control for 1 hour. The activity of the SMN complex in extracts from various treated cells was measured in comparison to DMSO control cell extract (100% activity) by magnetic beads snRNP assembly assay. The error bars represent SDs from 3 independent measurements. (D) Extracts from (C) mixed with sample buffer without (−DTT) or with (+DTT) reducing agent were resolved by SDS-PAGE and analyzed by Western blot of the entire membrane with anti-SMN antibody 62E7. The molecular mass markers in 41 kDa are indicated on the left. “redSMN” indicates monomer SMN migrating at normal molecular mass and “oxSMN” indicates disulfide-crosslinked SMN upon oxidation. (E) β-lapachone and menadione generate ROS in live cells. HeLa cells were incubated with ROS indicator dye H2DCFDA (10 μM) or without dye as a control for 30 minutes, and then treated with the compounds at the indicated concentrations or DMSO as a control. Fluorescence images were acquired 30 minutes after the treatment.
(A) Cell extracts treated with 20 μM β-lapachone, or 20 μM β-lapachone together with 20 μM DTT, or DMSO control were analyzed by non-reducing Western blot. The relative levels of monomer SMN (“redSMN”) were calculated as the percentage of that in DMSO control and shown by the blue bar. Assembly activities of the SMN complex were measured by magnetic beads snRNP assembly assay using the same set of treated extracts and shown by the red bar. The error bar represents SDs from 3 independent experiments. (B) The sulfhydryl modifying reagent iodoacetamide inhibits the activity of the SMN complex. In vitro assembly assays were performed in the presence of various concentrations of iodoacetamide. The activity of the SMN complex in the absence of iodoacetamide was set as 100% activity, and the relative activity at each iodoacetamide concentration was calculated in comparison and graphed. The error bars represent SDs from triplicate samples.
For quantitative in vitro assembly assays on magnetic beads, cytoplasmic extracts were prepared and used for assembly on biotin-labeled snRNAs using the standard reconstitution conditions in 96-well plates. Following the reactions, Y12 antibodies immobilized onto the magnetizable Dynabeads Protein A (Dynal Biotech ASA, Oslo, Norway) in 100 μl of RSB-500 buffer ([…]) containing 2 mg/ml heparin, 0.1% NP-40, and 0.2 U/.μl RNasin Plus RNase inhibitor (Promega, Madison, Wis.) were added to each well. Immunoprecipitations in the 96-well plates were carried out with gentle mixing at 750 rpm in a Thermomixer (Eppendorf, Germany) at 30° C. for 1 hour. The plates were subsequently transferred to a Kingfisher 96 magnetic particle processor (Thermo Labsystems, Vantaa, Finland) for automatic washing of the Dynabeads in each well with wash buffer (RSB-500, 0.1% NP-40) 5 times. After the last wash, beads bound to Y12 immunoprecipitated snRNPs were then resuspended in 120 μl of wash buffer containing 0.08 μg/ml horseradish peroxidase (HRP)-conjugated NeutrAvidin.TM. (Pierce, Rockford, Ill.). Following incubation at 30° C. for 1 hour with gentle mixing, the beads in each well were again washed five times with the Kingfisher 96 magnetic particle processor, and finally resuspended in 150 μl of SuperSignal ELISA Femto Substrate Working Solution (Pierce). […]

[2] = system: ROS in HeLa cells; assay: ROS detection in live HeLa cells with H2DCFDA dye; type: cell-based, human; conditions: for ROS generation in live cells (H2DCFDA fluorescence): 10 μM H2DCFDA, images 30 minutes after treatment
Procedure: as §1
Additional direct evidence for the ROS-generating activity of the compounds in live cells was obtained by staining cells with 2′,7′-dichlorodihydrofluorescein diacetate (H2DCFDA), a nonfluorescent dye that becomes fluorescent upon exposure to ROS. […] A significant level of ROS was apparent at 0.5 μM β-lapachone and increased proportionally with increasing b-lapachone concentrations.

[3] = biological target: T1, SMN complex; assay: Magnetic beads snRNP assembly assay on extracts from compound-treated HeLa cells; type: cell-based
Procedure: (§2) (B) Concentration-dependent inhibition of the activity of the SMN complex by b-lapachone in cells. HeLa cells were treated with various concentrations of β-lapachone or with DMSO (control) for 1 hour. The activity of the SMN complex in extracts from treated cells was measured using magnetic beads snRNP assembly assay and compared to that of DMSO-treated control cells (100% activity). IC50 was calculated from the dose-response graph. The error bars represent SDs from 3 independent measurements. […] Assembly reactions were performed using either cell extracts or purified native […] snRNP proteins lacking the SMN complex (Sm proteins). Both samples were adjusted to contain a similar amount of Sm proteins. Magnetic beads snRNP assembly assay were carried out with U4 or control U4DSm snRNA in the presence of either 20 or 100 μM β-lapachone or DMSO control. Sm core assembly on U4 snRNA in the presence of DMSO was considered 100% activity. The error bars represent SDs from 3 independent measurements.
In vitro transcription and labeling of RNAs was carried out using MEGAshortscript T7 transcription kit (Ambion) with the modification that 0.65 μM biotin-16-UTP (Roche) and 2.6 μM UTP were used in the reactions to produce biotinlabeled RNAs (Wan et al., 2005). Cell culture, drug treatment and preparation of cell extracts HeLa S3 cell pellets were purchased from National Cell Culture Center. Cytoplasmic extracts competent for snRNP assembly were prepared as described (Pellizzoni et al., 2002). Total cell extracts were made by resuspending cell pellets in reconstitution buffer ([…], 0.2 mM EDTA, 5% glycerol) containing 50 µg/ml digitonin (Calbiochem) and 1× Complete EDTA-free Protease Inhibitor Cocktail (Roche), followed by sonication. Nonidet P-40 (NP-40) was added to a final concentration of 0.01%, followed by centrifugation at 10,000 rpm for 15 minutes at 4° C. Glycerol was then added to the supernatant at a final concentration of 5%. For various drug treatments, two 10 cm plates of HeLa PV cells were treated with each drug at the indicated concentrations and times. Cells were harvested (˜90% confluent) and total cell extracts prepared using the aforementioned procedures. Protein concentrations of various extracts were determined using the Bradford protein assay (BioRad). All of the extracts for the same experiment were adjusted to the same final protein concentration
For quantitative in vitro assembly assays on magnetic beads, cytoplasmic extracts were prepared and used for assembly on biotin-labeled snRNAs using the standard reconstitution conditions in 96-well plates. […] The plates were transferred to a Wallac Victor2 multi-label plate reader (Perkin-Elmer, Wellesley, Mass.) for luminescence measurements at 495 nm. […]

[4] = system: SMN protein; assay: Quantitative non-reducing Western blot of SMN in extracts of treated HeLa cells; type: cell-based, human; conditions: 5 μM for 3 hours, prepared without DTT
Procedure: (B) HeLa total cell extracts prepared from cells treated for 3 hours with 5 μM β-lapachone or DMSO control were resolved by SDS-PAGE and analyzed by quantitative Western blotting, using JBP1 and Magoh as loading controls. The extracts were prepared and mixed with sample buffer without reducing agent. The membrane was cut into strips for the probing of each protein at the corresponding molecular mass.
For quantitative Western blot, cell extracts containing 20 g of total proteins were mixed with NuPAGE LDS sample buffer (Invitrogen) with or without reducing agent (Invitrogen), boiled for 5 minutes, and then separated on NuPAGE 4-12% Bis-Tris gels (Invitrogen) and transferred to nitrocellulose membranes. […] Mouse monoclonal antibodies, anti-SMN (62E7), anti-Gemin3 (12H12), anti-Gemin4 (17D10), anti-Gemin5 (10G11), anti-JBP1 (6G8), anti-Magoh (18G12) and anti-Sm (Y12), were used as described previously (Battle et al., 2006b; Lerner et al., 1981; Wan et al., 2005). The IRDye800 anti-mouse IgG secondary antibody (Rockland) was used at 1:5000.
To test this, extracts from b-lapachone-treated cells (at 5 μM for 3 hours) or DMSO-treated control cells were prepared in gel electrophoresis sample buffer without the reducing agent dithiothreitol (DTT) to preserve potential disulfides, resolved by SDS-PAGE, and analyzed by quantitative Western blots. […]

[5] = system: T2, Sm proteins; assay: Sm core assembly from purified native snRNP proteins lacking the SMN complex; type: biochemical, human; conditions: U4 snRNA, 20 or 100 μM
T2 construct: Native, RNA-free total snRNP proteins (TPs) were prepared from HeLa S3 cells; endogenous in cells; host or cells: HeLa S3 cells (pellets from National Cell Culture Center); proteins purified in house by the method of Sumpter et al., 1992
Procedure: as §2
Native, RNA-free total snRNP proteins (TPs) were prepared from HeLa S3 cells (National Cell Culture Center) as described previously (Sumpter et al., 1992). […] The other half of the samples were immunoprecipitated with anti-Sm monoclonal antibody (Y12), and the immunoprecipitated RNAs were isolated and analyzed by electrophoresis on […] urea/8% polyacrylamide gels. […]

[6] = system: transfected luciferase reporter; assay: Transcription and translation of a transfected luciferase reporter in treated cells; type: cell-based
[7] = system: SMN; assay: Indirect immunofluorescence of SMN (2B1) and snRNPs (Y12) in HeLa PV cells; type: cell-based, human; conditions: 5 μM for 3 hours vs DMSO control

## CC1(C)CCC2=C(O1)C(=O)c1ccccc1C2=O [α-lapachone]
[1]; in vitro
  inhibition of the SMN complex / assembly in cell extracts (in words): does not inhibit

## O=C1C(=O)c2ccccc2-c2ccccc21 [9,10-phenanthrenequinone]
[1]; in vitro
  inhibition of the SMN complex / assembly in cell extracts (in words): strongly inhibit

## CC1=CC(=O)c2ccccc2C1=O [menadione, 2-methyl-1,4-napthoquinone]
[2]
  ROS generation in live cells (H2DCFDA fluorescence): Dose-dependent fluorescence
[1]
  IC50: 25 µM
[3]; HeLa cells treated for 1 hour
  inhibition of SMN complex activity in cells: dose-dependent inhibition

## CC1(C)CCC2=C(O1)c1ccccc1C(=O)C2=O [β-lapachone, 3,4-dihydro-2,2-dimethyl-2H-naphthol[1,2-b]pyran-5,6-dione]
[4]
  decrease of intensity of the SMN band (monomer) compared to DMSO controls: ~60%
[2]
  ROS generation in live cells (H2DCFDA fluorescence): Dose-dependent fluorescence
[2]; HeLa cells, H2DCFDA
  concentration at which a significant level of ROS was apparent: 0.5 µM
[1]
  IC50: ~30 µM
[1]; in vitro
  inhibition of the SMN complex / assembly in cell extracts (in words): inhibited assembly in the cell extracts
[5]
  effect on Sm core formation from the purified snRNP proteins: no effect
[6]
  inhibition of transcription and translation of a transfected luciferase reporter: did not significantly inhibit
[7]
  SMN signal intensity or localization: no detectable difference
[3]; HeLa cells treated for 1 hour, read-out: IC50, inhibition of the activity of the SMN complex in treated cells
  IC50: 0.45 µM
[3]; extracts from cells treated for 6 hours with subtoxic concentration
  inhibition of snRNP assembly activity: about 90%
[3]; within 30 minutes of treatment
  inhibition of snRNP assembly: > 80%

## CC(=O)N[C@@H](CS)C(=O)O [N-acetyl-L-cysteine]
[1]; in vitro assembly reactions
  prevention of the inhibition of b-lapachone, menadione and H2O2: completely prevented

## O=C1C(=O)C(Cl)=C(Cl)C(Cl)=C1Cl [tetrachloro-1,2-benzoquinone]
[1]; in vitro
  inhibition of the SMN complex / assembly in cell extracts (in words): strongly inhibit

## NC(=O)CI [iodoacetamide]
[1]; in vitro
  inhibition of the SMN complex / assembly in cell extracts (in words): inhibits

## O[C@H](CS)[C@H](O)CS (racemic) [DTT, dithiothreitol]
[1]; 20 μM b-lapachone with 20 μM DTT
  prevention of the inhibitory effect of b-lapachone on SMN complex activity: completely neutralized

## OO [H2O2, hydrogen peroxide]
[1]; in vitro, value in words
  IC50, inhibition of the activity of the SMN complex in vitro: low millimolar range
